From US11529295B2, “Oral care composition” (Church & Dwight Co., Inc., priority 2019, dated 2022)

Assay: Fluoride Uptake Study, FDA monograph evaluation (FDA Method #40)
Set-up: species or system bovine
Settings: comparison between formulas, Tables 2 and 3
Method: Formulas 1 and 2, according to Example 1 above, are assessed by Fluoride Uptake Study, FDA monograph evaluation (FDA Method #40). A Control Formula, Placebo Formula, and USP Toothpaste Standard Formula are also assessed for comparison.
Sound, upper, central, bovine incisors were selected and cleaned of all adhering soft tissue. A core of enamel 3 mm in diameter was prepared from each tooth by cutting perpendicular to the labial surface with a hollow-core diamond drill bit. This was performed under water to prevent overheating of the specimens. Each specimen was embedded in the end of a plexiglass rod (114″ diameter×2″ long) using methylmethacrylate. […]
Each enamel specimen was then etched by immersion into 0.5 ml of 1M HC104 for 15 seconds. […] A sample of each solution was then buffered with TISAB to a pH of 5.2 (0.25 ml sample, 0.5 ml TISAB and 0.25 ml IN NaOH) and the fluoride content determined by comparison to a similarly prepared standard curve (1 ml std and 1 ml TISAB). For use in depth of etch calculation, the Ca content of the etch solution was determined by taking 50μl and analyzing for Ca by atomic absorption (0.05 ml qs to 5 ml). […]
The treatments were performed using supernatants of the dentifrice slurries. […] One layer of enamel was then removed from each specimen and analyzed for fluoride and calcium as outlined above (i.e., 15 second etch). […]

O.O.O.O=C([O-])CC(O)(CC(=O)[O-])C(=O)[O-].O=C([O-])CC(O)(CC(=O)[O-])C(=O)[O-].[Zn+2].[Zn+2].[Zn+2] [zinc citrate trihydrate]
enamel fluoride uptake, comparison in words: will not have a significant negative impact on Enamel Fluoride Uptake
